According to patent US11660319B2, “Compositions comprising bacterial strains” (priority 2017, dated 2023):

Legend:
SHSY5Y = assay: Neurite outgrowth: microscopy and MAP2 gene expression (qPCR); assay type: cell-based, human; conditions: for neurite outgrowth / neuron-like phenotype: undifferentiated SHSY-5Y cells, 10% bacteria supernatant, 200 uM hexanoic acid or 200 uM valproic acid, 17 hrs
Protocol: SHSY5Y were plated in 10 cm petri dishes a density of 2×10^6 cells. After 24 h cells were treated in differentiation medium (growth medium containing 1% FBS without RA) with 10% bacteria supernatants or YCFA+, 10 uM RA, 200 uM hexanoic acid or 200 uM valproic acid, for 17 hrs. There after representative images were taken using phase contrast EVOS XL core microscope at 40×/0.65 magnification. Cells were collected, and total RNA was isolated according to RNeasy mini kit protocol (Qiagen). cDNAs were made using the high capacity cDNA reverse transcription kit (Applied Biosystems). Gene expression was measured using qPCR. GAPDH was used as internal control. Fold change was calculated according to the 2^(−ΔΔct) method.
Cells were seeded onto 8 well chamber slides (Marienfeld Laboratory Glassware) at 5×10^4 cells/well overnight and were treated with 10% bacterial supernatant for 24 hrs. For differentiation, cells were treated with 10 nM Retinoic acid for 5 days before treating with bacterial supernatant. Cells were then fixed with 4% paraformaldehyde in PBS for 20 minutes at room temperature (RT). Fixed cells were washed with PBS, and permeabilized with 1% Triton X-100 in PBS for 10 minutes. After washing with PBS, the slides were incubated with blocking buffer (4% BSA/PBS) for 1 hr at RT before adding anti-MAP2 antibody (sc-74421, Santa Cruz Biotechnology Inc) diluted in 1% BSA/PBS for 12 hr at 4° C. They were then washed twice with PBS, followed by incubation with Alexa Flour 488 conjugated anti-mouse (Molecular Probes Inc) and Alexa Flour 594 conjugated Phalloidin (ab 176757, Abcam) for 1 hr at RT. After washing 3× with PBS, the slides were mounted with Vectorshield[…] containing DAPI (Sigma, Aldrich). Slides were viewed using a Zeiss Axioscope microscope equipped with a 63×/1.2 W Korr objective and filter sets suitable for detection of the fluorochromes used. Manual exposure times for the digital acquisition of images immuno-labelled with MAP-2 were kept constant allowing comparison between different wells and treatments. Phalloidin (F-actin) and DAPI exposure times varied to suit the field of view. Randomised fields of view were acquired using a QImaging camera controlled by Image Pro Plus software. Images were saved as TIFs and opened in Adobe Photoshop CC 2015.1.2 and overlays of the MAP-2, DAPI and Phalloidion images overlaid and merged. Representative images were selected to illustrate the differences in abundance and location of the proteins examined

HDAC = HDAC inhibition on whole HT-29 cells and HT-29 cell lysate; assay type: cell-based; conditions: for total HDAC activity, pure substances: HT-29, whole cells or lysate not told apart in the sentence
Protocol: Bacterial culture and cell-free supernatant collection Pure cultures of bacteria were grown anaerobically in YCFA broth until they reached their stationary growth phase. Cultures were centrifuged at 5,000×g for 5 minutes and the cell-free supernatant (CFS) was filtered using a 0.2 μM filter (Millipore, UK). 1 mL aliquots of the CFS were stored at −80° C. until use. Sodium butyrate, hexanoic and valeric acid were obtained from Sigma Aldrich (UK) and suspensions were prepared in YCFA broth.
To investigate which metabolites were responsible for the strain-induced HDAC inhibition, different concentrations of hexanoic acid, valeric acid and sodium butyrate were measured for their HDAC inhibition on whole HT-29 cells and on HT-29 cell lysate.

[1] = test system: SH-SY5Y neuroblastoma cells; assay: Neuroprotection / cell viability of neuroblastoma cells treated with MPP (CCK-8); assay type: cell-based, human; conditions: for protection compared to YCFA-MPP+ treated sample: RA-differentiated SHSY-5Y cells treated with MPP+
Protocol: Once grown the SH-SY5Y neuroblastoma cells were plated on 96-well plate at 11,000 cells/well and incubated for 2 days. The cells were then transferred to differentiation medium (which contains FBS at 1%) and 10 uM retinoic acid (Sigma Aldrich, cat. n. R2625-100MG). Differentiation medium was replaced every other day and cells were harvested at 7 day of differentiation. Cells were pre-treated with or without MPP (Sigma Aldrich, cat. n. D048-1G) for 8 hours. Subsequently, cells were treated with 10% bacterial supernatant and incubated overnight. Cell viability was measured by using CCK-8 reagent (Sigma Aldrich, Cell Counting Kit-8, cat. n. 96992-3000TESTS-F) and read at 450 nm wavelength.

BALBc mice [2] = assay: Ex vivo gene expression in colon and ileum of mice fed with bacteria; set-up: species or system mouse
Protocol: Animals were allowed to habituate to their holding room for one week after arrival into the animal unit. They receive oral gavage (200 μL dose) of live biotherapeutics at a dose of 1×10^9 CFU for 6 consecutive days between 15:00 and 17:00. On day 7, the animals are decapitated, and tissues are harvested for experimentation. The in vitro results were compared with data from the ex vivo parallel analysis on the gut of mice fed with […] expression of TJP2 and occludin was quantified in the colon and ileum. […] Total RNA was extracted using the mirVanaTM miRNA Isolation kit (Ambion/Llife technologies, Paisley, UK) and DNase treated (Turbo DNA-free, Ambion/life technologies) according to the manufacturers recommendations. RNA was quantified using NanoDropTM spectrophotometer (Thermo Fisher Scientific Inc., Wilmington, Del., USA) according to the manufacturer's instructions. RNA quality was assessed using the Agilent Bioanalyzer (Agilent, Stockport, UK) according to the manufacturer's procedure and an RNA integrity number (RIN) was calculated. […] RNA was reverse transcribed to cDNA using the Applied Biosystems High Capacity cDNA kit (Applied Biosystems, Warrington, UK) according to manufacturer's instructions. Briefly, Multiscribe Reverse Transcriptase (50 U/μL) (1)(2)(1)(10) was added as part of RT master mix, incubated for 25° C. for 10 min, 37° C. for 2 h, 85° C. for 5 min and stored at 4° C. Quantitative PCR was carried out using probes (6 carboxy fluorescein-FAM) designed by Applied Biosystems to mouse specific targeted genes, while using β-actin as an endogenous control. Amplification reactions contained 1 μl cDNA, 5 μl of the 2× PCR Master mix (Roche), 900 nM of each primer and were brought to a total of 10 μl by the addition of RNase-free water. All reactions were performed in triplicate using 96-well plates on the LightCycler®480 System. Thermal cycling conditions were as recommended by the manufacturer (Roche) for 55 cycles. To check for amplicon contamination, each run contained no template controls in triplicate for each probe used. Cycle threshold (Ct) values were recorded. Data was normalized using β-actin and transformed using the 2-ΔΔCT method and presented as a fold change vs. control group.

mouse Splenocytes = assay: Spleen cytokine assay ex vivo (LPS or ConA stimulation); assay type: in vivo
Protocol: Spleens were collected immediately in 5 mL RPMI media following sacrifice and cultured immediately. Spleen cells were first homogenised in this RPMI media, followed by 5 mins incubation with 1 ml of RBC lysis buffer (11814389001 ROCHE, Sigma). A further 10 ml of RPMI media was added, followed by 200G centrifugation for 5 mins. The supernatant was then filtered through 40 um strainer. Cells were counted and seeded (4,000,000/mL media). After 2.5 h of adaptation, cells were stimulated with lipopolysaccharide (LPS-2 μg/ml) or concanavalin A (ConA-2.5 μg/ml) for 24 h. Following stimulation, the supernatants were harvested to assess the cytokine release using Proinflammatory Panel 1 (mouse) V-PLEX Kit (Meso Scale Discovery, Maryland, USA) for TNFα, IL-10, IL-1β, Interferon γ, CXCL2 and IL6. The analyses were performed using MESO QuickPlex SQ 120, SECTOR Imager 2400, SECTOR Imager 6000, SECTOR S 600.
The ex-vivo splenocyte assay involves challenging the splenocytes (cells isolated from the spleen—a main organ involved in immune defense), with a bacterio- or viral-mimetic challenge.

BALBc mice [3] = assay: Gene expression in hippocampus, amygdala and prefrontal cortex (qPCR); assay type: in vivo, mouse
Protocol: Animals were allowed to habituate to their holding room for one week after arrival into the animal unit. They receive oral gavage (200 μL dose) of live biotherapeutics at a dose of 1×10^9 CFU for 6 consecutive days between 15:00 and 17:00. On day 7, the animals are decapitated, and tissues are harvested for experimentation.
Total RNA was extracted using the mirVana™ miRNA Isolation kit (Ambion/Llife technologies, Paisley, UK) and DNase treated (Turbo DNA-free, Ambion/life technologies) according to the manufacturers recommendations. RNA was quantified using NanoDrop™ spectrophotometer (Thermo Fisher Scientific Inc., Wilmington, Del., USA) according to the manufacturer's instructions. RNA quality was assessed using the Agilent Bioanalyzer (Agilent, Stockport, UK) according to the manufacturer's procedure and an RNA integrity number (RIN) was calculated. RNA with RIN value >7 was used for subsequent experiments. RNA was reverse transcribed to cDNA using the Applied Biosystems High Capacity cDNA kit (Applied Biosystems, Warrington, UK) according to manufacturer's instructions. Briefly, Multiscribe Reverse Transcriptase (50 U/μL) (1)(2)(1)(10) was added as part of RT master mix, incubated for 25° C. for 10 min, 37° C. for 2 h, 85° C. for 5 min and stored at 4° C. Quantitative PCR was carried out using probes (6 carboxy fluorescein-FAM) designed by Applied Biosystems to mouse specific targeted genes, while using β-actin as an endogenous control. Amplification reactions contained 1 μl cDNA, 5 μl of the 2× PCR Master mix (Roche), 900 nM of each primer and were brought to a total of 10 μl by the addition of RNase-free water. All reactions were performed in triplicate using 96-well plates on the LightCycler®480 System. Thermal cycling conditions were as recommended by the manufacturer (Roche) for 55 cycles. To check for amplicon contamination, each run contained no template controls in triplicate for each probe used. Cycle threshold (Ct) values were recorded. Data was normalized using β-actin and transformed using the 2-ΔΔCT method and presented as a fold change vs. control group.
Expression of genes for neurotransmitter receptors [serotonin receptor 1a(5-HTR1a), dopamine D1 receptor, GABA receptor subunit B1, GABAA receptor, NMDA2A (Grin2A) and NMDA2B (Grin2b) receptor], inflammatory markers [IL-1β, IL6, CD11b, TNFα and TLR4], and endocrine markers [corticosterone releasing factor (CRF), corticosterone releasing factor receptors 1 and 2 (CRFR1, CRFR2), brain-derived neurotrophin factor (BDNF), vasopressin receptor, oxytocin receptor, glucocorticoid receptor and mineralocorticoid receptor] were analysed in brain tissue from the hippocampus, amygdala and prefrontal cortex.

BALBc mice [4] = assay: Monoamine analysis in brainstem of mice fed with bacteria (HPLC); assay type: in vivo, mouse; conditions: 1×10^9 CFU oral gavage 6 days
Protocol: Neurotransmitter concentration was analysed by HPLC on samples from the brainstem. Briefly, brainstem tissue was sonicated in 500 μl of chilled mobile phase spiked with 4 ng/40 μl of N-Methyl 5-HT (Sigma Chemical Co., UK) as internal standard. The mobile phase contained 0.1 M citric acid, 5.6 mM octane-1-sulphonic acid (Sigma), 0.1 M sodium dihydrogen phosphate, 0.01 mM EDTA (Alkem/Reagecon, Cork) and 9% (v/v) methanol (Alkem/Reagecon) and was adjusted to pH 2.8 using 4 N sodium hydroxide (Alkem/Reagecon). Homogenates were then centrifuged for 15 min at 22,000×g at 4° C. and 40 μl of the supernatant injected onto the HPLC system which consisted of a SCL 10-Avp system controller, LECD 6A electrochemical detector (Shimadzu), a LC-10AS pump, a CTO-10A oven, a SIL-10A autoinjector (with sample cooler maintained at 40 C) and an online Gastorr Degasser (ISS, UK). A reverse-phase column (Kinetex 2.6 u C18 100×4.6 mm, Phenomenex) maintained at 30° C. was employed in the separation (Flow rate 0.9 ml/min). The glassy carbon working electrode combined with an Ag/AgCl reference electrode (Shimdazu) operated a +0.8 V and the chromatograms generated were analyzed using Class-VP 5 software (Shimadzu). The neurotransmitters were identified by their characteristic retention times as determined by standard injections, which run at regular intervals during the sample analysis. The ratios of peak heights of analyte versus internal standard were measured and compared with standard injection. Results were expressed as ng of neurotransmitter per g fresh weight of tissue.

[5] = test system: HT29-mtx epithelial, mucin-producing cell monolayers; assay: IL-8 secretion of HT29-mtx monolayers; assay type: cell-based; conditions: bacterial supernatants 24 h; compared to untreated and YCFA-treated cells
Text: HT29-mtx epithelial, mucin-producing cell monolayers were used as an in vitro model to evaluate gut barrier disruption and immune stimulation following treatment with MRx0005 and MRx0029.

[6] = test system: HT29-mtx epithelial, mucin-producing cell monolayers; assay: mRNA expression of tight junction proteins in HT29-mtx (qRT-PCR); assay type: cell-based
Protocol: Total RNA was extracted using the RNeasy mini kit (Qiagen, Manchester, JUK) according to the manufacturer's instructions, and the RNA concentration determined by absorbance at 260/280 nm using a spectrophotometer (nano-Drop ND-1000; Thermo Scientific, Wilmington, Del.). For mRNA expression analysis, cDNA was prepared from total RNA using the High-Capacity cDNA reverse transcription kit (Applied Biosystems, UK) according to the manufacturer's instructions. The reverse transcription reactions were performed in a Thermo cycler (Biometra, Germany) at 25° C. for 10 min, 37° C. for 120 min, and 85° C. for 5 min, hold on at 4° C. Resulting cDNA was amplified in duplicates by the SYBR-Green PCR assay, and products were detected on QuantStudio 6 flex real-time PCR machine (Applied Biosystems, UK) using a standardised profile (initial denaturation of 95° C. for 10 minutes, followed by 40 cycles of 15 seconds of denaturation at 95° C. and 60 seconds of annealing/extension at 60/65° C., depending on the primers. A dissociation stage was added after the 40 cycles to generate a melting curve. Analysis was performed using the Applied Biosystems QuantStudio Real-Time PCR Software v1.2. The primer sequences for Actin, Villin, Occludin TJP1 and TJP2 are provided in the sequence listing.

## CCCCCC(=O)O [hexanoic acid]
SHSY5Y
  neurite outgrowth / neuron-like phenotype: enhance neurite outgrowth
HDAC
  total HDAC activity, pure substances: did not show significant inhibitory activity

## O=c1c(O)c(-c2ccc(O)c(O)c2)oc2cc(O)cc(O)c12 [quercetin, reference compound]
[1]
  protection compared to YCFA-MPP+ treated sample: about the same

## CCCC(=O)[O-].[Na+] [sodium butyrate, reference compound]
HDAC
  total HDAC activity, pure substances: significant HDAC inhibition
HDAC; HT-29 cell lysate
  HDAC inhibition, HT29 cell lysate: significant (P<0.05) inhibition
HDAC; whole HT-29 cells
  HDAC inhibition, HT29 whole cell: significant (P<0.05) inhibition

## CCCC(CCC)C(=O)O [valproic acid, reference compound]
SHSY5Y
  neurite outgrowth / neuron-like phenotype: increases neurite outgrowth
SHSY5Y; undifferentiated neuroblastoma cells, qPCR, GAPDH internal control
  MAP2 expression: increase

## Parabacteroides distasonis [MRx0005]
BALBc mice [2]; colon
  IDO-1 expression: increase
BALBc mice [2]; ileum
  expression of IDO1: increased
  expression of Tph1: increased
Mouse Splenocytes; challenge with LPS
  interleukin-6 in splenocytes: reduced
  levels of interferon-γ in splenocytes: significantly reduced
  tumour necrosis factor in splenocytes: reduced
Mouse Splenocytes; splenocytes
  levels of the chemoattractant CXCL1: increase
BALBc mice [3]; amygdala
  expression of BDNF: significantly increased
  expression of CD11b: increase
  expression of GABBR1: increased
  expression of GABRA2: significantly increased
  expression of Grin2a: reduced
  expression of Grin2b: reduced
  expression of IL-6: reduced
BALBc mice [3]; prefrontal cortex
  expression of BDNF: significant increase
[1]; 10% bacterial supernatant, without MPP
  proliferation of neurons: increase
[1]
  protection compared to YCFA-MPP+ treated sample: about 20%
[1]; RA-differentiated SHSY-5Y cells, per se (no MPP+)
  mitochondria metabolic activity: increase
BALBc mice [4]
  dopamine in brain: decrease
[5]
  secretion of IL-8: even lower secretion
[6]
  gene expression of tight junction proteins: did not alter
